From PubChem BioAssay (NCI)
Where “and” joins values, the source holds several entries; their conditions need not be identical. Identical values can stand only once.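 Where inhibition never reached the appropriate level, the endpoint shown equals the highest concentration tested. Otherwise, values were interpolated linearly from a five-concentration, 48-hour dose response in 96-well plates. GI50 is the concentration that inhibits growth by half. TGI is the concentration that stops growth completely.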

Legend:
Assay in all cases: DTP human tumour cell line panel, 48 h
SF-268 CNS = system: SF-268 CNS
HT29 colon = system: HT29 colon
OVCAR-5 ovarian = system: OVCAR-5 ovarian
CCRF-CEM leukemia = system: CCRF-CEM leukemia
OVCAR-8 ovarian = system: OVCAR-8 ovarian
MALME-3M melanoma = system: MALME-3M melanoma
786-0 renal = system: 786-0 renal
BT-549 breast = system: BT-549 breast
KM20L2 colon = system: KM20L2 colon
DLD-1 colon = system: DLD-1 colon

## O=C(/C=C/c1ccc(O)c(O)c1)NCc1c[nH]c2ccccc12
SF-268 CNS
  GI50: 63.8 µM
  TGI: > 100 µM
HT29 colon
  GI50: 47.2 µM
  TGI: > 100 µM
OVCAR-5 ovarian
  GI50: > 100 µM
  TGI: > 100 µM
CCRF-CEM leukemia
  GI50: 48.4 µM
  TGI: > 100 µM
OVCAR-8 ovarian
  GI50: 56.6 µM
  TGI: > 100 µM
MALME-3M melanoma
  GI50: 29.2 µM
  TGI: > 100 µM
786-0 renal
  GI50: 39.7 µM
  TGI: > 100 µM
BT-549 breast
  GI50: 78.5 µM
  TGI: > 100 µM

## COc1ccc(NC(=O)/C=C(C)/C=C/C=C(C)/C=C/C2=C(C)CCCC2(C)C)cc1
SF-268 CNS
  GI50: 4.95 µM
  TGI: 17.3 µM
HT29 colon
  GI50: 3.22 µM
  TGI: 10.2 µM
OVCAR-5 ovarian
  GI50: 15.9 µM
  TGI: 30.7 µM
CCRF-CEM leukemia
  GI50: 2.05 µM
  TGI: 4.67 µM
OVCAR-8 ovarian
  GI50: 13 µM
  TGI: 38.5 µM
MALME-3M melanoma
  GI50: 38.9 µM
  TGI: 65.4 µM
786-0 renal
  GI50: 14.4 µM
  TGI: 28.7 µM
BT-549 breast
  GI50: 27.2 µM
  TGI: 43.3 µM

## Cc1cc(Cl)ccc1OCC(=O)Nc1nc(N)nc(N)n1
SF-268 CNS
  TGI: > 100 µM
HT29 colon
  TGI: > 100 µM
OVCAR-5 ovarian
  TGI: > 100 µM
CCRF-CEM leukemia
  TGI: > 100 µM
OVCAR-8 ovarian
  TGI: > 100 µM
MALME-3M melanoma
  TGI: > 100 µM
786-0 renal
  TGI: > 100 µM
BT-549 breast
  TGI: > 100 µM

## CCN1CCN(Cc2ccc(NC(=O)Nc3nc4ccc(Oc5ccnc(C(=O)NC)c5)cc4s3)cc2C(F)(F)F)CC1
SF-268 CNS
  GI50: 2 µM
  TGI: 4.12 µM
HT29 colon
  GI50: 1.27 µM
  TGI: 3.42 µM
OVCAR-5 ovarian
  GI50: 2.12 µM
  TGI: 3.93 µM
CCRF-CEM leukemia
  GI50: 0.443 µM
  TGI: 2.47 µM
OVCAR-8 ovarian
  GI50: 2.11 µM
  TGI: 4.49 µM
MALME-3M melanoma
  GI50: 1.2 µM
  TGI: 2.67 µM
786-0 renal
  GI50: 1.03 µM
  TGI: 2.36 µM
BT-549 breast
  GI50: 2.32 µM
  TGI: 4.25 µM

## CN1CCN(Cc2ccc(NC(=O)c3cncc(C#Cc4cnc(N)cc4C#N)c3)cc2C(F)(F)F)CC1
SF-268 CNS
  GI50: 3.7 µM
  TGI: 19.2 µM
HT29 colon
  GI50: 1.04 µM
  TGI: 15.5 µM
OVCAR-5 ovarian
  GI50: 2.76 µM
  TGI: 14.2 µM
CCRF-CEM leukemia
  GI50: 3.4 µM
  TGI: 42.7 µM
OVCAR-8 ovarian
  GI50: 4.51 µM
  TGI: 19 µM
MALME-3M melanoma
  GI50: 0.264 µM
  TGI: 0.943 µM
786-0 renal
  GI50: 4.38 µM
  TGI: 16 µM
BT-549 breast
  GI50: 4.25 µM
  TGI: 16.8 µM

## COc1cccc(CN(C)c2ccc(CO)c(Cl)c2)c1
SF-268 CNS
  GI50: 44.5 µM
  TGI: > 100 µM
HT29 colon
  GI50: 5.03 µM
  TGI: > 100 µM
OVCAR-5 ovarian
  GI50: 0.322 µM
  TGI: 1.91 µM
CCRF-CEM leukemia
  GI50: 39.3 µM
  TGI: > 100 µM
OVCAR-8 ovarian
  GI50: 20.7 µM
  TGI: > 96.5 µM
MALME-3M melanoma
  GI50: 25.9 µM
  TGI: > 89.7 µM
786-0 renal
  GI50: 13.9 µM
  TGI: > 67.6 µM
BT-549 breast
  GI50: 19.8 µM
  TGI: 80 µM

## Cn1cccc1-c1cc(-c2ccccc2)[nH]c(=O)c1C#N
SF-268 CNS
  GI50: > 100 µM
  TGI: > 100 µM
HT29 colon
  GI50: > 100 µM
  TGI: > 100 µM
OVCAR-5 ovarian
  GI50: > 100 µM
  TGI: > 100 µM
CCRF-CEM leukemia
  GI50: > 100 µM
  TGI: > 100 µM
OVCAR-8 ovarian
  GI50: > 100 µM
  TGI: > 100 µM
MALME-3M melanoma
  GI50: > 100 µM
  TGI: > 100 µM
786-0 renal
  GI50: > 100 µM
  TGI: > 100 µM
BT-549 breast
  GI50: > 100 µM
  TGI: > 100 µM

## C=C1C(=O)O[C@H]2[C@H]1CC/C(COC(=O)NCc1ccc(OC)cc1)=C\CC[C@@]1(C)O[C@@H]21
SF-268 CNS
  GI50: 1.72 µM
  TGI: 13.4 µM
HT29 colon
  GI50: 0.835 µM
  TGI: 2.78 µM
OVCAR-5 ovarian
  GI50: 2.16 µM
  TGI: 8.53 µM
CCRF-CEM leukemia
  GI50: 0.378 µM
  TGI: 2.1 µM
OVCAR-8 ovarian
  GI50: 1.23 µM
  TGI: 9.27 µM
MALME-3M melanoma
  GI50: 0.554 µM
  TGI: 1.29 µM
786-0 renal
  GI50: 0.7 µM
  TGI: 1.67 µM
BT-549 breast
  GI50: 0.696 µM
  TGI: 2.07 µM

## Cc1ccc2nc(-c3ccc(OCC(=O)N=Nc4c(O)[nH]c5ccccc45)cc3)[nH]c2c1
SF-268 CNS
  GI50: 3.54 µM
  TGI: 14.4 µM
HT29 colon
  GI50: 2.43 µM
  TGI: 6.27 µM
OVCAR-5 ovarian
  GI50: 19.1 µM
  TGI: > 100 µM
CCRF-CEM leukemia
  GI50: 1.93 µM
  TGI: 11.3 µM
OVCAR-8 ovarian
  GI50: 2.46 µM
  TGI: 6.34 µM
MALME-3M melanoma
  GI50: 2.1 µM
  TGI: 4.6 µM
786-0 renal
  GI50: 2.06 µM
  TGI: 4.38 µM
BT-549 breast
  GI50: 45.1 µM
  TGI: > 100 µM

## COc1cc2ncnc(-n3ncc4cc(NC(=O)Nc5ccc(Cl)c(Cl)c5)ccc43)c2cc1OC
SF-268 CNS
  GI50: 2.44 µM
  TGI: 7.32 µM
HT29 colon
  GI50: 1.98 µM
  TGI: 4.29 µM
OVCAR-5 ovarian
  GI50: 1.83 µM
  TGI: 4.31 µM
CCRF-CEM leukemia
  GI50: 4.01 µM
  TGI: 42.3 µM
OVCAR-8 ovarian
  GI50: 2.77 µM
  TGI: 7.07 µM
MALME-3M melanoma
  GI50: 1.72 µM
  TGI: 3.89 µM
786-0 renal
  GI50: 1.56 µM
  TGI: 3.52 µM
BT-549 breast
  GI50: 1.97 µM
  TGI: 4.17 µM

## Cc1cc(C)c2c(n1)sc1c(N)ncnc12
SF-268 CNS
  GI50: > 25 µM
  TGI: > 25 µM
HT29 colon
  GI50: 16.2 µM
  TGI: > 25 µM
OVCAR-5 ovarian
  GI50: > 25 µM
  TGI: > 25 µM
CCRF-CEM leukemia
  GI50: > 25 µM
  TGI: > 25 µM
OVCAR-8 ovarian
  GI50: > 25 µM
  TGI: > 25 µM
MALME-3M melanoma
  GI50: > 25 µM
  TGI: > 25 µM
786-0 renal
  GI50: > 25 µM
  TGI: > 25 µM
BT-549 breast
  GI50: 11.3 µM
  TGI: > 25 µM

## CNNC(=N\S(=O)(=O)c1cc(C)c(Cl)cc1SCc1ccccc1)/N=C/c1ccc([N+](=O)[O-])s1
SF-268 CNS
  GI50: > 100 µM
  TGI: > 100 µM
HT29 colon
  GI50: 27.4 µM
  TGI: > 100 µM
OVCAR-5 ovarian
  GI50: > 100 µM
  TGI: > 100 µM
CCRF-CEM leukemia
  GI50: > 100 µM
  TGI: > 100 µM
OVCAR-8 ovarian
  GI50: > 100 µM
  TGI: > 100 µM
MALME-3M melanoma
  GI50: 1.18 µM
  TGI: > 64.2 µM
786-0 renal
  GI50: > 100 µM
  TGI: > 100 µM
BT-549 breast
  GI50: > 100 µM
  TGI: > 100 µM

## O=C1C(=O)N(c2ccc(Cl)cc2)C(=O)C(=O)C1c1nc2ccccc2s1
SF-268 CNS
  TGI: > 100 µM
HT29 colon
  TGI: > 100 µM
OVCAR-5 ovarian
  TGI: > 100 µM
KM20L2 colon
  TGI: > 100 µM
OVCAR-8 ovarian
  TGI: > 100 µM
MALME-3M melanoma
  TGI: > 100 µM
786-0 renal
  TGI: > 100 µM

## Clc1cccc(N2CCN(CCCN3CCc4c([nH]c5ccccc45)C3c3cccnc3)CC2)c1 (stereo not given)
HT29 colon
  GI50: 3.18 µM
  TGI: 14.2 µM
DLD-1 colon
  TGI: 27 µM
OVCAR-5 ovarian
  GI50: 8.66 µM
  TGI: 23.9 µM
CCRF-CEM leukemia
  GI50: 11.9 µM
  TGI: > 100 µM
KM20L2 colon
  TGI: 18.8 µM
OVCAR-8 ovarian
  TGI: 26 µM
MALME-3M melanoma
  GI50: 5.78 µM
  TGI: 8.97 µM and 21.6 µM
786-0 renal
  GI50: 7.08 µM
  TGI: 20.2 µM

## CSc1ncc(Br)c(Sc2nc(N)nc3nc[nH]c23)n1
SF-268 CNS
  GI50: 3.6 µM
  TGI: 85.6 µM
HT29 colon
  GI50: 4.09 µM
  TGI: 60.5 µM
OVCAR-5 ovarian
  GI50: 4.98 µM
  TGI: > 100 µM
CCRF-CEM leukemia
  GI50: 2.38 µM
  TGI: 9.3 µM
OVCAR-8 ovarian
  GI50: 3.78 µM
  TGI: > 100 µM
MALME-3M melanoma
  GI50: 3.34 µM
  TGI: 18.3 µM
786-0 renal
  GI50: 3.82 µM
  TGI: > 100 µM
BT-549 breast
  GI50: 2.64 µM
  TGI: > 100 µM
